According to the Kinase Knowledgebase extract (Sharma et al. 2016):

Tests used:
PIK3CA (human) = PIK3CA (human) (UniProt P42336); test: Inhibition of PIK3CA Kinase Activity
PIK3CB (Human) = PIK3CB (Human) (UniProt P42338); test: Inhibition of PIK3CB Kinase Activity
PIK3CD (Human) = PIK3CD (Human) (UniProt O00329); test: Inhibition of PIK3CD Kinase Activity
Sequence of PIK3CD (Human) (O00329 whole entry, looked up): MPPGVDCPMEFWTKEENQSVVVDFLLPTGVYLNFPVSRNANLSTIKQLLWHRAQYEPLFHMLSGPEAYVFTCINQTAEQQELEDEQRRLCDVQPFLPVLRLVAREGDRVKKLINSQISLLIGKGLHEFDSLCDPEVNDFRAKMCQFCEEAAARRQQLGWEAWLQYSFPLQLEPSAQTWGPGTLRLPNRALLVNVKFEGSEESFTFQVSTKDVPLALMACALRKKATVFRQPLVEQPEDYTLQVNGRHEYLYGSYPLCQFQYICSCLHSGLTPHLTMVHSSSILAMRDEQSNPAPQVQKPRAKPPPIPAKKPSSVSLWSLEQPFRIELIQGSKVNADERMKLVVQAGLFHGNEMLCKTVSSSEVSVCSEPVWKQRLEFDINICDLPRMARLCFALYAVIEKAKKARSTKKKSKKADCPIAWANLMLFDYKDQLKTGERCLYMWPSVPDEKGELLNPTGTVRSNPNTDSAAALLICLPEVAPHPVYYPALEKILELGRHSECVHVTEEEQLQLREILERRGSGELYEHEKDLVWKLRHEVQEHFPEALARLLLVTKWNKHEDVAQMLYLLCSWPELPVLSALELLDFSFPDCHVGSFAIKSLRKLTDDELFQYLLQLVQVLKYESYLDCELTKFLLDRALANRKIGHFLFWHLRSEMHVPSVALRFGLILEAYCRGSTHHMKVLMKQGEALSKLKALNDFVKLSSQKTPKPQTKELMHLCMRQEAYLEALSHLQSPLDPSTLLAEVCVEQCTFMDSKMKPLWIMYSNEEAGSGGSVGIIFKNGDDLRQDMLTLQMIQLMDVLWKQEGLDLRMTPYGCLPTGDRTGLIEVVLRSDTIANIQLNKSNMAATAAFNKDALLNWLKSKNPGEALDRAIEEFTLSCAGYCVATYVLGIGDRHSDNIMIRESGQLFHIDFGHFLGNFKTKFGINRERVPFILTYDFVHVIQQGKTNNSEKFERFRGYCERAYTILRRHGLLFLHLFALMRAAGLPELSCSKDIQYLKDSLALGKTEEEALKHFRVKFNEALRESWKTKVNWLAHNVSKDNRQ

Sequence of PIK3CA (human) (P42336 whole entry, looked up): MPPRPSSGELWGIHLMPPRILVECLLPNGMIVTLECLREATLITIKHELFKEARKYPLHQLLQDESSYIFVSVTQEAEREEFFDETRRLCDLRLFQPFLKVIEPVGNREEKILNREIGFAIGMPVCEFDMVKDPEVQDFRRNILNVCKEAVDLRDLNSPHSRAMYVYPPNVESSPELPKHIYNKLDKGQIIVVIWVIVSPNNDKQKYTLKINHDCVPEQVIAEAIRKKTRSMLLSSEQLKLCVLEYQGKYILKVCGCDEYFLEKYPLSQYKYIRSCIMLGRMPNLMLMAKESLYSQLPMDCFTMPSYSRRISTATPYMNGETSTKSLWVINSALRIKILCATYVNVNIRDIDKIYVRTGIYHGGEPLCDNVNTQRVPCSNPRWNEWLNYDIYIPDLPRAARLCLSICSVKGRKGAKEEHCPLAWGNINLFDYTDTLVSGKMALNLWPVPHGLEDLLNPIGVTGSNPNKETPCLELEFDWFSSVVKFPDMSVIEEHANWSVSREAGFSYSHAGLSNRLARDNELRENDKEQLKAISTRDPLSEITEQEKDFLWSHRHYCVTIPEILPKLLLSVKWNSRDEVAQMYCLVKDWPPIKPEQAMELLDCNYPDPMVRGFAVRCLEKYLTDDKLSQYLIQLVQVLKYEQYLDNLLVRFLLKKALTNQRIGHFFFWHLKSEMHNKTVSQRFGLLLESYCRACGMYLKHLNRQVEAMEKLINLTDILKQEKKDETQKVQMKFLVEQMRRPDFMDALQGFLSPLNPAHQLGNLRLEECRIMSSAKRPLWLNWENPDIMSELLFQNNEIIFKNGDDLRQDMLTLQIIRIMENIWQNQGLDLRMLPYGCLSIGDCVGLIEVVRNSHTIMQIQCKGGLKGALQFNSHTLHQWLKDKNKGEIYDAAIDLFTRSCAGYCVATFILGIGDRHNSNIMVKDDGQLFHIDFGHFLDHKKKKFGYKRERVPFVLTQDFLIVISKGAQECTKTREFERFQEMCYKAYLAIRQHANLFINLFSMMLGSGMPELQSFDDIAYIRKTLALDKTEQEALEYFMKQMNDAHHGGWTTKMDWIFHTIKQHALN
Sequence of PIK3CB (Human) (P42338 whole entry, looked up): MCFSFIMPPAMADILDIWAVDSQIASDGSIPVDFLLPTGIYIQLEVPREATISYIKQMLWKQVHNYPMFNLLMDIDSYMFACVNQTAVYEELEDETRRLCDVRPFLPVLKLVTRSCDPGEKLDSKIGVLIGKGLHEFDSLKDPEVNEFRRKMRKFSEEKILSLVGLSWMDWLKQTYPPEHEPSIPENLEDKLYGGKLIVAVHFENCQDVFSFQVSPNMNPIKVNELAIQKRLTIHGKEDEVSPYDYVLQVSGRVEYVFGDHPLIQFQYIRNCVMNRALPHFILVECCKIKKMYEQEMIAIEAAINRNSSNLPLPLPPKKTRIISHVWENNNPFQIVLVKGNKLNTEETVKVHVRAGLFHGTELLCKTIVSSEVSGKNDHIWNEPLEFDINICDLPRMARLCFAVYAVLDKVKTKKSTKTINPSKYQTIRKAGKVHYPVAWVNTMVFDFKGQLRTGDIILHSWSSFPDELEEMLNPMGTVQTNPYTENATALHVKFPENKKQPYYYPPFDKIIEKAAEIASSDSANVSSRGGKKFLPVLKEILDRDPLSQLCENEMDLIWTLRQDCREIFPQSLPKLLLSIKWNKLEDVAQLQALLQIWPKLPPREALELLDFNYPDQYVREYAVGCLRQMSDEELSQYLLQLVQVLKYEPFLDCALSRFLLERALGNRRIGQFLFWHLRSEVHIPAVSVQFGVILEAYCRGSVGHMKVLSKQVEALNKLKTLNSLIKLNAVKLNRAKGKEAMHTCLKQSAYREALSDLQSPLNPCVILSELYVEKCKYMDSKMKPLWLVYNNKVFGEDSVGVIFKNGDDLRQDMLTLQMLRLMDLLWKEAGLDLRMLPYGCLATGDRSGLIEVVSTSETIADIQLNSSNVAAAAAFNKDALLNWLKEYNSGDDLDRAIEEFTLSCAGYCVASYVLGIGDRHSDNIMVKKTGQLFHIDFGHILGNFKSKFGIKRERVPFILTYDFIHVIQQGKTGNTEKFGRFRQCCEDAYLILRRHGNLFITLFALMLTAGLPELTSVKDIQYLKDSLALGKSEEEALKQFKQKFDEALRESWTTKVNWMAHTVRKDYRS

IC50 (PIK3CA (human))	IC50 (PIK3CB (Human))	IC50 (PIK3CD (Human))	SMILES
5.8 nM	5600 nM	200 nM	CN(N=Cc1cnn2ccc(C#N)cc12)S(=O)(=O)c1cc([N+](=O)[O-])ccc1CCc1ccccn1
84 nM	–	120 nM	Cc1ccc([N+](=O)[O-])cc1S(=O)(=O)c1nnc(-c2cnn3ccc(Br)cc23)o1
–	> 10000 nM	–	Cc1ccc([N+](=O)[O-])cc1S(=O)(=O)N(C)N=Cc1cnn2ccccc12
–	94 nM	–	CN(N=Cc1cnn2ccc(C#N)cc12)S(=O)(=O)c1cc([N+](=O)[O-])ccc1Cl
23 nM	720 nM	240 nM	CCCCCC.Cc1ccc([N+](=O)[O-])cc1S(=O)(=O)N(C)N=Cc1cnn2ccc(I)cc12
